Test results as given in US10508109B2 (priority 2015, dated 2019).
Structures can show the parent of a compound that is named as a salt. Where two headings read alike, the source gives them in different places.

How the values were obtained:
SUV39H2 = SUV39H2 (Homo sapiens (Human), UniProt Q9H5I1); settings: read-out: IC50 (μM) Suv 39H2 assay; enzyme assay
CCD-18Co = assay: Cell-based assay, anti-proliferative activity (Cell Counting Kit-8, 72 hours); settings: Homo sapiens, read-out: IC50 (μM) CCD-18Co
Summary of the method: (§1)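 Seed cells in 96-well plates; add serially diluted inhibitor (1.5625 to 100 micro-M plus vehicle); incubate 72 hours; quantify viable growth by CCK-8 and calculate IC50.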

HCT-116 = assay: as above; settings: Homo sapiens, read-out: IC50 (μM) HCT-116
Summary of the method: as §1

HFL1 = assay: as above; settings: Homo sapiens, read-out: IC50 (μM) HFL1
Summary of the method: as §1

PC14 = assay: as above; settings: Homo sapiens, read-out: IC50 (μM) PC14
Summary of the method: as §1

A549 = assay: as above; settings: Homo sapiens, read-out: IC50 (μM) A549
Summary of the method: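 Seed cells in 96-well format; add inhibitors; measure growth by CCK-8 at end of exposure; derive IC50.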

[1] = CCD-18Co cells, 72 hours, Cell Counting Kit-8
[2] = HCT-116 cells, 72 hours, Cell Counting Kit-8
[3] = HFL1 cells, 72 hours, Cell Counting Kit-8
[4] = PC-14, PC14 cells, 72 hours, Cell Counting Kit-8
[5] = A549 cells, 72 hours, Cell Counting Kit-8
[6] = CCD-18Co cells, Cell Counting Kit-8, 72 hours
[7] = HCT-116 cells, Cell Counting Kit-8, 72 hours
[8] = HFL1 cells, Cell Counting Kit-8, 72 hours
[9] = PC-14, PC14 cells, Cell Counting Kit-8, 72 hours
[10] = A549 cells, Cell Counting Kit-8, 72 hours

Sequence of SUV39H2 (Q9H5I1 whole entry): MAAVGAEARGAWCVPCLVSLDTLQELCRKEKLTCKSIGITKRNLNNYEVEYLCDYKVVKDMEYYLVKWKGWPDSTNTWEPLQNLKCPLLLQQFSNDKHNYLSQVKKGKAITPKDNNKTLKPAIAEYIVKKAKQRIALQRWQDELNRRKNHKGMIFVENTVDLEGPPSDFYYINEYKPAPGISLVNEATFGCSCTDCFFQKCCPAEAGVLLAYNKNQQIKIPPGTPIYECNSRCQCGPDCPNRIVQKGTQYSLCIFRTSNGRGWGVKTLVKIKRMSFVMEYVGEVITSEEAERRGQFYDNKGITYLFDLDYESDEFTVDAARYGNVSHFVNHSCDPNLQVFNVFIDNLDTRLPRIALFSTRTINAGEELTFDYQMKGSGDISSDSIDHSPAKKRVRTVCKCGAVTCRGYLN

COc1cc(C)c(-c2cn3ccc(N4CCN(S(=O)(=O)C5CC5)C(COCCN(C)C)C4)cc3n2)cc1Cl (stereo not drawn) [Example 264, 2-((4-(2-(5-chloro-4-methoxy-2-methylphenyl)imidazo[1,2-a]pyridin-7-yl)-1-(cyclopropylsulfonyl)piperazin-2-yl)methoxy)-N,N-dimethylethanamine]
IC50 (SUV39H2): 0.07 µM
IC50 (CCD-18Co; [1]): 5 µM
IC50 (HCT-116; [2]): 8.5 µM
IC50 (HFL1; [3]): 4.7 µM
IC50 (PC14; [4]): 4.5 µM
IC50 (A549; [5]): 5.6 µM

COc1cc(OC)c(-c2cn3ccc(N4CCN(c5ccc(C#N)cn5)CC4)cc3n2)cc1Cl [Example 293, 6-(4-(2-(5-chloro-2,4-dimethoxyphenyl)imidazo[1,2-a]pyridin-7-yl)-piperazin-1-yl)nicotinonitrile]
IC50 (SUV39H2): 0.0226 µM
IC50 (CCD-18Co; [1]): 0.62 µM
IC50 (HCT-116; [2]): 0.33 µM
IC50 (HFL1; [3]): 1.3 µM
IC50 (PC14; [4]): 1 µM
IC50 (A549; [5]): 0.67 µM

CNc1ccn2cc(-c3cc(Cl)c(OC)cc3OC)nc2c1 [Example 6, 2-(5-chloro-2,4-dimethoxyphenyl)-N-methylimidazo[1,2-a]pyridin-7-amine hydrobromide]
IC50 (SUV39H2): 0.00943 µM
IC50 (CCD-18Co; CCD-18Co, 72 h): 2.7 µM
IC50 (HCT-116; HCT-116, 72 h): 1.7 µM
IC50 (HFL1; HFL1, 72 h): 1 µM
IC50 (PC14; PC-14, 72 h): 1.4 µM
IC50 (A549; A549, 72 h): 2.2 µM

COc1cc(OC)c(-c2cn3ccc(N4CCCC4)nc3n2)cc1Br [Example 3, 2-(5-bromo-2,4-dimethoxyphenyl)-7-(pyrrolidin-1-yl)imidazo[1,2-a]pyrimidine]
IC50 (SUV39H2): 0.00858 µM
IC50 (CCD-18Co; [6]): 6.8 µM
IC50 (HCT-116; [7]): 8.1 µM
IC50 (HFL1; [8]): 7.4 µM
IC50 (PC14; [9]): 7.1 µM
IC50 (A549; [10]): 11 µM

COc1cc(OCCCN(C)C)c(-c2cn3ccc(N4CCN(S(=O)(=O)C5CCCC5)CC4)nc3n2)cc1Cl [Example 227, 3-(4-chloro-2-(7-(4-(cyclopentylsulfonyl)piperazin-1-yl)imidazo[1,2-a]-pyrimidin-2-yl)-5-methoxyphenoxy)-N,N-dimethylpropan-1-amine]
IC50 (SUV39H2): 0.0382 µM
IC50 (CCD-18Co; [1]): 6.2 µM
IC50 (HCT-116; [2]): 5.2 µM
IC50 (HFL1; [3]): 5.7 µM
IC50 (PC14; [4]): 5.4 µM
IC50 (A549; [5]): 7 µM

COc1cc(OC)c(-c2cn3ccc(C4=CCN(CCN5CCOCC5)CC4)cc3n2)cc1Cl [Example 144, 4-(2-{4-[2-(5-chloro-2,4-dimethoxyphenyl)imidazo[1,2-a]pyridin-7-yl]-5,6-dihydropyridin-1(2H)-yl}ethyl)morpholine]
IC50 (SUV39H2): 0.0191 µM
IC50 (CCD-18Co; [6]): 6.3 µM
IC50 (HCT-116; [7]): 5.9 µM
IC50 (HFL1; [8]): 7 µM
IC50 (PC14; [9]): 1.5 µM
IC50 (A549; [10]): 3.9 µM

COc1cc(OC)c(-c2cn3ccc(-c4ccc(C(=O)NCC5CCNCC5)cc4)cc3n2)cc1Cl [Example 267, 4-(2-(5-chloro-2,4-dimethoxyphenyl)imidazo[1,2-a]pyridin-7-yl)-N-(piperidin-4-ylmethyl)benzamide]
IC50 (SUV39H2): 0.0458 µM
IC50 (CCD-18Co; [1]): 10 µM
IC50 (HCT-116; [2]): 10 µM
IC50 (HFL1; [3]): 10 µM
IC50 (PC14; [4]): 10 µM
IC50 (A549; [5]): 10 µM

COc1cc(OC)c(-c2cn3ccc(-c4ccc(C(=O)N5CCNCC5)cc4)cc3n2)cc1Cl [Example 254, (4-(2-(5-chloro-2,4-dimethoxyphenyl)imidazo[1,2-a]pyridin-7-yl)-phenyl)(piperazin-1-yl)methanone]
IC50 (SUV39H2): 0.0383 µM
IC50 (CCD-18Co; [1]): 3.1 µM
IC50 (HCT-116; [2]): 2.6 µM
IC50 (HFL1; [3]): 2.8 µM
IC50 (PC14; [4]): 0.99 µM
IC50 (A549; [5]): 2.7 µM

COc1cc(OCCCN(C)C)c(-c2cn3ccc(N4CCCN(S(=O)(=O)N(C)C)CC4)cc3n2)cc1Cl [Example 216, 4-(2-{5-chloro-2-[3-(dimethylamino)propoxy]-4-methoxyphenyl}-imidazo[1,2-a]pyridin-7-yl)-N,N-dimethyl-1,4-diazepane-1-sulfonamide]
IC50 (SUV39H2): 0.0194 µM
IC50 (CCD-18Co; [1]): 2.7 µM
IC50 (HCT-116; [2]): 3.3 µM
IC50 (HFL1; [3]): 1.5 µM
IC50 (PC14; [4]): 1.6 µM
IC50 (A549; [5]): 1.9 µM
